Data as given in patent US7691985B2, “Skeletal-targeted radiation to treat bone-associated pathologies” (priority 1999, dated 2010).

What was measured:
[1] = test system: Multiple myeloma patients; assay: ^166Ho-DOTMP plus melphalan with or without TBI and stem cell transplant, Phase I/II (Examples 7, 11, 13); assay type: in vivo, human
Protocol: Multiple myeloma patients (≦65 yrs. of age) that have responded to initial chemotherapy or have primary refractory disease or chemotherapy responsive relapse, but who are not in refractory relapse are treated. Patients are well hydrated with fluids during the day prior to the diagnostic dose. An initial diagnostic dose of 30 mCi of ^166Ho-DOTMP is administered to confirm the selective localization to the skeleton, establish the in-vivo pharmacokinetics and provide radiation dosimetry estimates for the red marrow. Assuming >15% of the ^166Ho-DOTMP accumulates in bone following the injection, the amount of ^166Ho-DOTMP required for therapy is calculated based on delivering a specified radiation absorbed dose to the marrow. Patients receive the therapeutic dose by intravenous injection over 5-10 minutes, given over 1-3 days >48 hrs after the dosometry (test) dose.
The time line for conducting the investigation is as follows: Test dose ^166Ho-DOTMP (30 mCi); ^166Ho scan image (0, 4-6, 20-24 hr.); Blood samples for dosimetry (10, 30 min, 1, 2, 6, 20-24 hr.); Urine samples (0-6, 6-12, 12-24, 24-48 hr.); and External whole body probe (0, 2, 6, 24 and 48 hr.).
Melphalan is administered 48 hr prior to the predicted PBSC infusion based upon dosimetry assessment from the test dose. PBSC infusion is administered when bone marrow dose from ^166Ho is ≦1 cGy/hr. Patients were treated at 20, 30, 40 and prospectively 50 Gy, and with 140 mg/m^2 and 200 mg/m^2 melphalan.
The MTD was defined as the level that is associated with a true toxicity rate of 20%, where toxicity for these purposes was taken to be grade 3 or greater extramedullary drug related toxicity.
All toxicities encountered during the study will be evaluated according to Bearman criteria (Bearman et al., J Clin Oncol, 6,1562, (1988)). Graft failure is considered a grade 3 toxicity. Graft failure is defined as failure to recover granulocytes to 0.5×10^9/l or platelets 20×10^9/l within 28 days of transplant or a fall to less than these levels for 3 or more consecutive days after day 28 without other apparent cause. Hematopoietic recovery (engraftment) is defined as having a sustained granulocyte count of 0.5×10^9/l for two consecutive counts post transplant and a platelet count 20×10^9/l for seven consecutive counts post transplant, without transfusion support. The first of two counts for the granulocyte count and the first of seven counts for the platelet count are considered the day of engraftment.
Patients undergo blood stem cell infusion at the time when ongoing radiation to the marrow falls to <1 rad/hr, and at least 24 hours after melphalan infusion. The total volume of stored cells is infused into a free flowing IV line primed with normal saline. Patients are premedicated with acetaminophen 650 mg PO and diphenhydramine 50 mg PO or IV. All patients receive conventional supportive care for autologous/syngeneic blood and marrow transplantation, (such as allopurinol, menstrual suppression, prophylactic antibiotics, empiric antibiotics, IV Ig, transfusions of blood products, hyperalimentation, and the like).
Patients, afflicted with multiple myeloma, were treated according to the method of the present invention. The dosage range of radiation from the complex was 460 mCi to 4.5 Ci.
Fifty-three patients received intravenous hydration only, while 30 patients received both IV hydration and continuous bladder irrigation.
In order to achieve a complete response using protocol criteria, a patient must have a complete absence of any myeloma protein in the blood/urine and marrow post treatment. The patient must have normal bone marrow with complete resolution of plasmocytomas and no increase in bone lesions. To meet international standards, this must be maintained for 6 weeks. While response rates to a conventional high dose therapy vary widely, in general for previously treated patients, there is a range of 5-25% CR rate. […]

[2] = Pharmacokinetics and patient specific dosimetry of ^166Ho-DOTMP in patients with breast cancer metastatic to bone (Example 6); assay type: in vivo, human
Protocol: Eight patients with breast cancer metastatic only to bone initially received a 30 mCi dose of ^166Ho-DOTMP for diagnostic purposes. Pharmacokinetics were assessed via whole body counting, gamma camera imaging, and urine and blood assays for the first 48 hours following injection. Patients were followed with autologous stem cell transplantation for rescue from hematologic toxicity.
Therapy doses were calculated based upon prescribed dose to the red bone marrow using the Medical Internal Radiation Dose (MIRD) technique and percentage localization in the skeleton. Appropriate S-values were provided by Oak Ridge National Laboratory. The desired target dose was 22 Gy to the red marrow calculated by the above technique for each individual. The average red marrow dose was calculated to be 1.97±0.92 cGy/mCi (range: 0.98 cGy/mCi to 3.19 cGy/mCi). Three patients proceeded to therapy, two were disqualified due to low uptake in the skeleton (≦30%; revised qualification: 15%), and three were disqualified for other reasons unrelated to the ^166Ho-DOTMP treatment.

[3] = 140 mg/m^2 melphalan w/ TBI, 20 Gy to marrow
[4] = 140 mg/m^2 melphalan w/ TBI, 30 Gy to marrow
[5] = 140 mg/m^2 melphalan w/ TBI, 40 Gy to marrow
[6] = 140 mg/m^2 melphalan w/o TBI, 20 Gy to marrow
[7] = 140 mg/m^2 melphalan w/o TBI, 30 Gy to marrow
[8] = 140 mg/m^2 melphalan w/o TBI, 40 Gy to marrow
[9] = 200 mg/m^2 melphalan w/o TBI, 20 Gy to marrow
[10] = 200 mg/m^2 melphalan w/o TBI, 30 Gy to marrow
[11] = 200 mg/m^2 melphalan w/o TBI, 40 Gy to marrow
[12] = 40 patients who received 200 mg/m^2 melphalan and were not in CR at treatment
[13] = nine patients, 750+/−10% mCi/m^2
[14] = nine patients, dose 750 mCi/m^2 (±10%)
[15] = patients who received more than 1500 mCi
[16] = patients who received ≦1500 mCi
[17] = ≦30 Gy marrow dose, 35 evaluable patients

SMILES: O=P([O-])(O)CN1CCN(CP(=O)(O)O)CCN(CP(=O)([O-])O)CCN(CP(=O)(O)O)CC1.[166Ho] [^166Ho-DOTMP]
- Days to ANC > 500 [1, 3]: 9 days
- Days to Platelets > 20,000 [1, 3]: 12 days
- Number of Patients w/ Grade 3 Toxicity [1, 3]: 0/8
- Days to ANC > 500 [1, 4]: 11 days
- Days to Platelets > 20,000 [1, 4]: 12 days
- Number of Patients w/ Grade 3 Toxicity [1, 4]: 1/8
- Days to ANC > 500 [1, 5]: 9 days
- Days to Platelets > 20,000 [1, 5]: 13 days
- Number of Patients w/ Grade 3 Toxicity [1, 5]: 0/20
- Complete Response ([1]; 140 mg/m^2 melphalan w/ TBI, all marrow doses): 7/17
- Days to ANC > 500 [1, 6]: 10 days
- Days to Platelets > 20,000 [1, 6]: 10 days
- Number of Patients w/ Grade 3 Toxicity [1, 6]: 0/5
- Days to ANC > 500 [1, 7]: 16 days
- Days to Platelets > 20,000 [1, 7]: 10 days
- Number of Patients w/ Grade 3 Toxicity [1, 7]: 0/4
- Days to ANC > 500 [1, 8]: 12 days
- Days to Platelets > 20,000 [1, 8]: 10 days
- Number of Patients w/ Grade 3 Toxicity [1, 8]: 0/7
- Complete Response ([1]; 140 mg/m^2 melphalan w/o TBI, all marrow doses): 3/14
- patients alive ([1]; 200 mg/m^2 melphalan patients, mean follow-up time 39.4 months): Sixty-one
- Days to ANC > 500 [1, 9]: 10 days
- Days to Platelets > 20,000 [1, 9]: 11 days
- Number of Patients w/ Grade 3 Toxicity [1, 9]: 0/4
- Days to ANC > 500 [1, 10]: 12 days
- Days to Platelets > 20,000 [1, 10]: 10 days
- Number of Patients w/ Grade 3 Toxicity [1, 10]: 0/7
- Days to ANC > 500 [1, 11]: 10.5 days
- Days to Platelets > 20,000 [1, 11]: 10 days
- Number of Patients w/ Grade 3 Toxicity [1, 11]: 0/14
- Complete Response ([1]; 200 mg/m^2 melphalan w/o TBI, all marrow doses): 8/9
- complete remission [1, 12]: 39%
- partial response [1, 12]: 32%
- patients who developed grade 3-4 renal toxicity ([1]; 83 patients): Twenty-five
- symptoms of long-term kidney dysfunction ([1]; 83 patients, 5-12 months post-therapy): 40%
- patient deaths ([1]; Phase I/II studies, to date): 21
- complete response rate ([1]; across all ^166Ho-DOTMP/melphalan±TBI doses, 77 patients with response data): 35%
- patients with a partial response ([1]; across all doses, 77 patients with response data): Twenty-four
- Grade 1-3 hemorrhagic cystitis (HC) observed ([1]; all patients): 24 patients
- patients who developed TTP/HUS ([1]; all treated at 40 Gy or higher to the marrow): Seven
- cases of Grade 3-4 renal toxicities [1, 13]: no cases of Grade 3-4 renal toxicities
- cases of TTP/HUS [1, 13]: no cases of TTP/HUS
- 2-year survival [1, 14]: 100%
- CR rate [1, 14]: 44.4%
- Grade 1-3 hemorrhagic cystitis (HC), patients treated without continuous bladder irrigation (CBI) ([1]; of the 24 patients with HC): 22 patients
- cases of TTP and Grade 3 or high renal toxicity ([1]; patients administered less than 1500 mCi): no reported cases
- cases of TTP/HUS ([1]; patients treated at doses, 675 mCi/m^2): no cases of TTP/HUS occurred
- incidence of sustained renal dysfunction ([1]; patients who received less than 1500 mCi): 23%
- CR rate [1, 15]: 36%
- Two-year survival [1, 15]: 67%
- CR rate [1, 16]: 32%
- Two-year survival [1, 16]: 77%
- patients with renal dysfunction not related to TTP/HUS or progressive myeloma ([1]; serum creatinine >2 mg/dL twice or >3 mg/dL once): nine
- tolerability ([1]; with melphalan at 200 mg/m^2): well tolerated
- survival of 12 months ([1]; ≦30 Gy marrow dose): 100%
- Complete Response [1, 17]: 30%
- partial response [1, 17]: 32%
- progressive disease [1, 17]: None
- stable disease [1, 17]: 32%
- effective skeletal half-life ([2]; 30 mCi diagnostic dose): 19.9 ± 2.5 h
- average percentage uptake in the skeleton ([2]; 30 mCi diagnostic dose, eight patients): 28±12%
- material present in the urine ([2]; 6 hours post injection): Approximately 50%
- injected dose remaining in whole blood ([2]; 24 hours post injection): a small percentage
- whole blood clearance early T1/2 ([2]; biphasic clearance): 3 ± 2.4 min
- whole blood clearance late T1/2 ([2]; biphasic clearance): 11 ± 4 h
- average red marrow dose ([2]; calculated by MIRD technique): 1.97±0.92 cGy/mCi
- toxicity ([2]; therapy, target 22 Gy to red marrow, three patients): Other than severe hematological suppression, no toxicity was noted
